These results are taken from US20230090742A1, “AMINOPYRIMIDINYLAMINOBENZONITRILE DERIVATIVES AS NEK2 INHIBITORS” (Sumitomo Pharma Oncology, Inc., priority 2020, published 2023).

A value given as a limit tells only on which side of the number the result lay.

One assay addresses T1, NEK2 (Homo sapiens, UniProt P51955).
T1 construct: expressed in transfected cells; host or cells: HEK293
T1 sequence (P51955 1-445): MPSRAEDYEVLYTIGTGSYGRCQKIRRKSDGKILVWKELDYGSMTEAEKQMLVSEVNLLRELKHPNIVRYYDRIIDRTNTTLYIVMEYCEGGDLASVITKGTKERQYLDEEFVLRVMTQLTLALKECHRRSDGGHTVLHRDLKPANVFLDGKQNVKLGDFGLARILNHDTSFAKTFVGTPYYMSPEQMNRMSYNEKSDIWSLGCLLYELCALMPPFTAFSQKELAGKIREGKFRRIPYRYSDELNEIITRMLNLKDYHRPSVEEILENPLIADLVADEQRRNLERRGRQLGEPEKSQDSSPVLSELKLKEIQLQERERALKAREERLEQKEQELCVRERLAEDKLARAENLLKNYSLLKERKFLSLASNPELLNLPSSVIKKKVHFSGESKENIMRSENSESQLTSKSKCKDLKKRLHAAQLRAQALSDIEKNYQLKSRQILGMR
Nature of the assay: NanoBRET Target Engagement Intracellular Kinase Assay for NEK2 in transfected HEK293 cells. In kind it is cell-based. The settings on record: NEK2 target engagement, read-out: NanoBRET IC50. The protocol: In this example, the compounds described herein were tested for their inhibitory activity against NEK2 using a model of in vivo activity by the NanoBRET™ Target Engagement Intracellular Kinase Assay (Reaction Biology Corp.). The assay was performed according to the manufacturer's protocol, as detailed below.
HEK293 cells were cultivated (70-80% confluence) prior to the assay. The sample was trypsinized and HEK293 cells were collected.
To prepare lipid: DNA complexes, a 10 μg/ml solution of DNA in Opti-MEM without serum was prepared that consisted of the following ratios of carrier DNA and DNA encoding NanoLuc® fusion: 9.0 μg/ml of Transfection Carrier DNA, 1.0 μg/ml of NanoLuc fusion vector DNA and 1 ml of Opti-MEM without phenol red. The solution was mixed thoroughly. 30 μl of FuGENE HD Transfection Reagent was added into each milliliter of DNA mixture to form lipid: DNA complex. The sample was mixed by inversion 10 times and then incubated at ambient temperature for 20 minutes to allow complexes to form. In a sterile, conical tube, 1 part of lipid:DNA complex was mixed with 20 parts of HEK293 cells in suspension. The resulting sample was mixed gently by inversion 5 times. The cell and lipid: DNA complex was dispensed into a sterile tissue culture dish and incubated for 22-24 hours.
Each test compound is delivered from the compound source plate to the wells of 384-well white NBS plate by Echo 550.
Step 3. Preparation of Cells with NanoBRET™ Tracer K5 Reagent:
The medium was removed from the dish with the transfected HEK293 cells via aspiration, trypsinized and cells were allowed to dissociate from the dish. Trypsin was neutralized using medium containing serum and centrifuged at 200×g for 5 minutes to pellet the cells. The cell density was adjusted to 2×10^5 cells/ml in Opti-MEM without phenol red.
The Complete 20× NanoBRET™ Tracer K5 Reagent with Tracer Dilution Buffer was prepared according to the manufacturer's instructions. One part of Complete 20× NanoBRET™ Tracer Reagent was added to 20 parts of cells in the tube. The sample was mixed gently by inversion 10 times. Next, the cell suspension was dispensed into white, 384-well NBS plates with a final tracer K5 concentration of 2 μM. The plate was incubated at 37° C., 5% CO2 for 1 hour. A separate set of samples without tracer were prepared for background correction steps.
The plate was removed from the incubator and equilibrated to room temperature for 15 minutes. The 3× Complete Substrate plus Inhibitor Solution in Assay Medium (Opti-MEMR I Reduced Serum Medium, no phenol red) was prepared just before measuring BRET. The 3× Complete Substrate plus Inhibitor Solution was added to each well of the 384-well plate and incubated for 2-3 minutes at room temperature. The donor emission wavelength (460 nm) and acceptor emission wavelength (600 nm) were measured using the Envision 2104 plate reader.
To generate raw BRET ratio values, the acceptor emission value (600 nm) was divided by the donor emission value (460 nm) for each sample. To correct for background, the BRET ratio in the absence of tracer (average of no-tracer control samples) was subtracted from the BRET ratio of each sample.
BRET Ratio=[(Acceptor sample÷Donor sample)−(Acceptor no-tracer control÷Donor no-tracer control)]

In assay [1] the target is T2, NEK2 kinase (Accession No. NP-002488) (Homo sapiens, UniProt P51955).
T2 construct: purchased ThermoFisher Scientific (Invitrogen)
T2 sequence (P51955 1-445): T1 sequence (P51955 1-445)
The experiment in a line: HotSpot Kinase Assay, NEK2. The settings on record: HotSpot Kinase Assay; read-out: NEK2 IC50. It counts as biochemical. The protocol:
In this example, the compounds described herein were tested for their inhibitory activity against NEK2 and/or Aurora A using the HotSpot™ Kinase Assay (Reaction Biology Corp.). The assay was performed according to the manufacturer's protocol, as detailed below. The NEK2 kinase (Accession No. NP-002488) and Aurora A kinase (Accession No. NP-940839) for use in these assays was sourced from ThermoFisher Scientific (Invitrogen).
The base Reaction Buffer used in this experiment contained the following: 20 mM Hepes (pH 7.5), 10 mM MgCl2, 1 mM EGTA, 0.02% Brij™-35, 0.02 mg/ml BSA, 0.1 mM Na3VO4, 2 mM DTT, and 1% DMSO. The required cofactors were added individually to each kinase reaction.
Testing compounds were dissolved in 100% DMSO to a specific concentration. The serial dilution was conducted by Integra Viaflo Assist in DMSO.
The substrate was prepared in freshly prepared Reaction Buffer. The required cofactors were delivered to the substrate solution described above. NEK2 kinase or Aurora A kinase was delivered to the substrate solution and gently mixed. Next, the compounds in 100% DMSO were transferred to the kinase reaction mixture by Acoustic technology (Echo550; nanoliter range) and incubated for 20 min at room temperature. ^33P-ATP (Specific activity 10 μCi/μl) was delivered into the reaction mixture to initiate the reaction. The reaction was incubated for 2 hours at room temperature. Radioactivity was then detected by the filter-binding method. Kinase activity data were expressed as the percent remaining kinase activity in test samples compared to vehicle (dimethyl sulfoxide) reactions. IC50 values and curve fits were obtained using Prism (GraphPad Software).

As usually defined, the IC50 is the concentration at which inhibition is half-maximal. As for `N#Cc1c(Nc2nc(Nc3ccc(C4CCNCC4)cc3)ncc2Cl)cccc1OCc1ccccc1F` [Compound 27, 2-((5-chloro-2-((4-(piperidin-4-yl)phenyl)amino)pyrimidin-4-yl)amino)-6-((2-fluorobenzyl)oxy)benzonitrile], the IC50 on NEK2 was 50 to 150 nM; in assay [1], not above 5 nM.
On to `N#Cc1c(Nc2nc(Nc3ccc(CN4CCNCC4)cc3)ncc2Cl)cccc1OCc1ccccc1F` [Compound 15, 2-((5-chloro-2-((4-(piperazin-1-ylmethyl)phenyl)amino)pyrimidin-4-yl)amino)-6-((2-fluorobenzyl)oxy)benzonitrile], for which the IC50 is more than 150 nM at NEK2 and 5 to 15 nM in assay [1].
For `N#Cc1c(Nc2nc(Nc3ccc(CN4CCOCC4)cc3)ncc2Cl)cccc1OCc1ccccc1F` [Compound 1, 2-((5-chloro-2-((4-(morpholinomethyl)phenyl)amino)pyrimidin-4-yl)amino)-6-((2-fluorobenzyl)oxy)benzonitrile] the same measures were not above 50 nM and more than 15 nM.
The like results for `N#Cc1c(Nc2nc(Nc3ccc(N4CCN(CCO)CC4)cc3)ncc2Cl)cccc1OCc1ccccc1F` [Compound 17, 2-((5-chloro-2-((4-(4-(2-hydroxyethyl)piperazin-1-yl)phenyl)amino)pyrimidin-4-yl)amino)-6-((2-fluorobenzyl)oxy)benzonitrile] were, in that order, 50 to 150 nM and not above 5 nM.
The like results for `N#Cc1c(Nc2nc(Nc3cnn(C4CCNCC4)c3)ncc2Cl)cccc1OCc1ccccc1F` [Compound 31, 2-((5-chloro-2-((1-(piperidin-4-yl)-1H-pyrazol-4-yl)amino)pyrimidin-4-yl)amino)-6-((2-fluorobenzyl)oxy)benzonitrile] were, in that order, more than 150 nM and 5 to 15 nM.
For the compound `C[C@@H](Oc1cccc(Nc2nc(Nc3ccc(N4CCN(C)CC4)cc3)ncc2Cl)c1C#N)c1ccccc1F` [Compound 4, (R)-2-((5-chloro-2-((4-(4-methylpiperazin-1-yl)phenyl)amino)pyrimidin-4-yl)amino)-6-(1-(2-fluorophenyl)ethoxy)benzonitrile], the 50% inhibitory concentration (IC50) is more than 150 nM on NEK2 and more than 15 nM in assay [1].
The like results for `CN1CCN(c2ccc(Nc3ncc(Cl)c(Nc4cccc(OCc5ccccc5F)c4C#N)n3)cc2)CC1` [Compound 18, 2-((5-chloro-2-((4-(4-methylpiperazin-1-yl)phenyl)amino)pyrimidin-4-yl)amino)-6-((2-fluorobenzyl)oxy)benzonitrile] were, in that order, 50 to 150 nM and not above 5 nM.
Regarding `N#Cc1c(Nc2nc(Nc3ccc(N4CCNCC4)nc3)ncc2Cl)cccc1OCc1ccccc1F` [Compound 8, 2-((5-chloro-2-((6-(piperazin-1-yl)73yridine-3-yl)amino)pyrimidin-4-yl)amino)-6-((2-fluorobenzyl)oxy)benzonitrile], the IC50 on NEK2 was more than 150 nM; in assay [1] it was 5 to 15 nM.
For `N#Cc1c(Nc2nc(Nc3ccc(C(=O)N4CCNCC4)cc3)ncc2Cl)cccc1OCc1ccccc1F` [Compound 6, 2-((5-chloro-2-((4-(piperazine-1-carbonyl)phenyl)amino)pyrimidin-4-yl)amino)-6-((2-fluorobenzyl)oxy)benzonitrile] the same measures were more than 150 nM and more than 15 nM.
As to `COc1ccccc1COc1cccc(Nc2nc(Nc3ccc(N4CCNCC4)cc3)ncc2Cl)c1C#N` [Compound 11, 2-((5-chloro-2-((4-(piperazin-1-yl)phenyl)amino)pyrimidin-4-yl)amino)-6-((2-methoxybenzyl)oxy)benzonitrile], the half-inhibitory concentration (IC50) at NEK2 is more than 150 nM; in assay [1], more than 15 nM.
As for `N#Cc1c(Nc2nc(Nc3ccc(N4CCNCC4)cc3)ncc2Cl)cccc1OCc1c(F)cccc1F` [Compound 19, 2-((5-chloro-2-((4-(piperazin-1-yl)phenyl)amino)pyrimidin-4-yl)amino)-6-((2,6-difluorobenzyl)oxy)benzonitrile], the results for the IC50 (at NEK2; in assay [1]) were not above 50 nM and 5 to 15 nM, respectively.
Consider `C[C@H](Oc1cccc(Nc2nc(Nc3ccc(N4CCN(C)CC4)cc3)ncc2Cl)c1C#N)c1ccccc1F` [Compound 3, (S)-2-((5-chloro-2-((4-(4-methylpiperazin-1-yl)phenyl)amino)pyrimidin-4-yl)amino)-6-(1-(2-fluorophenyl)ethoxy)benzonitrile], for which the IC50 at NEK2 was not above 50 nM; in assay [1], not above 5 nM.
For `COc1cc(Nc2ncc(Cl)c(Nc3cccc(OCc4ccccc4F)c3C#N)n2)ccc1N1CCNCC1` [Compound 9, 2-((5-chloro-2-((3-methoxy-4-(piperazin-1-yl)phenyl)amino)pyrimidin-4-yl)amino)-6-((2-fluorobenzyl)oxy)benzonitrile] the same measures were not above 50 nM and not above 5 nM.
The like results for `COc1cc(N2CCNCC2)ccc1Nc1ncc(Cl)c(Nc2cccc(OCc3ccccc3F)c2C#N)n1` [Compound 7, 2-((5-chloro-2-((2-methoxy-4-(piperazin-1-yl)phenyl)amino)pyrimidin-4-yl)amino)-6-((2-fluorobenzyl)oxy)benzonitrile] were, in that order, more than 150 nM and not above 5 nM.
The like results for `N#Cc1c(Nc2nc(Nc3ccc(N4CCNCC4)cc3)ncc2Cl)cccc1OCc1cccc(F)c1` [Compound 14, 2-((5-chloro-2-((4-(piperazin-1-yl)phenyl)amino)pyrimidin-4-yl)amino)-6-((3-fluorobenzyl)oxy)benzonitrile] were, in that order, more than 150 nM and more than 15 nM.
For the compound `N#Cc1c(Nc2nc(Nc3ccc(N4CCNCC4)cc3)ncc2Cl)cccc1OCc1ccc(F)cc1` [Compound 13, 2-((5-chloro-2-((4-(piperazin-1-yl)phenyl)amino)pyrimidin-4-yl)amino)-6-((4-fluorobenzyl)oxy)benzonitrile], the IC50 on NEK2 is more than 150 nM; in assay [1], more than 15 nM.
